Consider nine compounds from ChEMBL document CHEMBL1201862, “PubChem BioAssay data set” (2004).

Molecules are shown by their SMILES.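 Each compound was tested at five concentrations against cells in 96-well plates for 48 hours. GI50 marks 50% less growth.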 Calls of active or inactive are those of the source. Rule as the data show it: active = GI50 up to about 1.1 µM and inactive = higher. Non-standard residues stand in square brackets, D forms with d. Residues, ends and D or L forms follow the SMILES beside them. *: point of attachment. NMeF = CN[CH](Cc1ccccc1)C(=O)O; NMeV = CN[CH](C(=O)O)C(C)C; Boc = CC(C)(C)OC(=O)*

Holding throughout (experiment): NCI anticancer screen, dose series, 48 h
The subject of assay [1] is ACHN.
Assay [2] concerns CCRF-CEM.
Assay [3] has as its system HOP-92.
Assay [4] relates to KM12.
In assay [5] the test system is MOLT-4.
Assay [6] deals with Malme-3M.
For assay [7], the system named is NCI-H23.
Assay [8] has as its system NCI-H460.
Assay [9] has as its system OVCAR-3.
Assay [10] relates to OVCAR-4.
Assay [11] concerns SF-539.
Assay [12] concerns SK-MEL-28.
Assay [13] deals with SR.
Assay [14] deals with SW-620.
Assay [15] deals with UO-31.
The test system of assay [16] is A498.
For assay [17], the system named is LOX IMVI.
In assay [18] the test system is HCC 2998.

In the case of `CC1=CC(=O)N2C(OC[C@@H]2c2ccccc2)O1` (some centres not stated), the GI50 in assay [1], in assay [2], in assay [3], in assay [4], in assay [5] and in assay [6] was > 100 µM (inactive) each time. Further, the GI50 in [7], in assay [8], in assay [9], in [10], in assay [11] and in [12] was > 100 µM (inactive) throughout. The GI50 in assay [13], in [14] and in assay [15] was > 100 µM (inactive) in each case.
On to `CC(C)N1CN(C(C(=O)N[C@@H]2C(=O)N3C2SC(C)(C)C3C(=O)O)c2ccc(O)cc2)CSC1=S` (some centres not stated), for which the GI50 in assay [16] was > 100 µM (inactive); in [1], > 100 µM (inactive); in assay [2] it was 58.7 µM (inactive); in assay [3] it was > 100 µM (inactive); in [4], > 100 µM (inactive); in [17] it was > 100 µM (inactive). For the same compound, the GI50 is > 100 µM (inactive) in assay [5]; > 100 µM (inactive) in [6]; > 100 µM (inactive) in [7]; > 100 µM (inactive) in assay [8]; 41.1 µM (inactive) in assay [9]; > 100 µM (inactive) in assay [10]. The GI50 in assay [11] was > 100 µM (inactive); in [12] it was > 100 µM (inactive); in assay [14], 16.9 µM (inactive); in assay [15] it was > 100 µM (inactive).
Turning to `N#CCC(=O)N1CCCOCCC1`, the GI50 in assay [16] is > 100 µM (inactive); in assay [1] it was > 100 µM (inactive); in [2] it was > 100 µM (inactive); in [18], > 100 µM (inactive); in assay [4] it was > 100 µM (inactive); in [17], 44.8 µM (inactive). In addition, the GI50 in assay [5] is 0.46 µM (active); in assay [6], > 100 µM (inactive); in assay [7], > 100 µM (inactive); in [8], > 100 µM (inactive); in [10], 38.6 µM (inactive); in [11] it was > 100 µM (inactive). The GI50 was > 100 µM (inactive) in [12], 6.73 µM (inactive) in [14] and > 100 µM (inactive) in [15].
As to `O=C(CC(=O)N1N=C(n2ccc3ccccc32)CC1c1ccccc1)Nc1ccccc1Cl` (configuration not stated), the GI50 was > 100 µM (inactive) in assay [16]; > 100 µM (inactive) in assay [1]; > 100 µM (inactive) in assay [2]; > 100 µM (inactive) in [18]; 32.3 µM (inactive) in assay [3]; > 100 µM (inactive) in assay [4]. Moreover, the GI50 in assay [17], in assay [5], in assay [6], in assay [7], in assay [8] and in assay [9] was > 100 µM (inactive) throughout. Further, the GI50 in assay [10], in [11], in assay [12], in assay [14] and in [15] was > 100 µM (inactive) each time.
Consider `CC(C)C(NC(=O)OC(C)(C)C)C(=O)N(C)C(Cc1ccccc1)C(=O)N(C)C(C(=O)O)C(C)C` (stereo not drawn) (Boc-Val-[NMeF]-[NMeV]-OH; configuration not given here), for which the GI50 in assay [2], in assay [18], in [4], in assay [17], in [5] and in assay [6] was > 100 µM (inactive) in each case. Also, the GI50 in [7], in assay [8], in assay [9], in [11], in [12] and in assay [13] was > 100 µM (inactive) in each case. Besides, the GI50 in assay [14] and in assay [15] was > 100 µM (inactive) in each case.
On to `C#Cc1c(C)c(/C=C/C(C)=C/C(=O)OC)n(C)c1C`, for which the GI50 is > 100 µM (inactive) in assay [16]; 43.7 µM (inactive) in assay [1]; 51.9 µM (inactive) in [2]; 59 µM (inactive) in assay [18]; 25 µM (inactive) in assay [3]; > 100 µM (inactive) in [4]. The GI50 was > 100 µM (inactive) in assay [17]; 23.4 µM (inactive) in assay [5]; > 100 µM (inactive) in [6]; > 100 µM (inactive) in assay [7]; > 100 µM (inactive) in [9]; 82.2 µM (inactive) in assay [10]. The GI50 in assay [11], in [14] and in [15] was > 100 µM (inactive) in each case.
`Cc1ccc(S(=O)(=O)NC(=O)NC(Cc2c[nH]c3ccccc23)C(=O)O)cc1` (configuration not stated): the GI50 in [2], in assay [3], in assay [4], in [17], in assay [5] and in [6] was > 100 µM (inactive) throughout. The GI50 in assay [7], in assay [8], in assay [10], in assay [11], in assay [12] and in assay [13] was > 100 µM (inactive) each time. Further, the GI50 in assay [14] and in assay [15] was > 100 µM (inactive) in each case.
For `c1cc2ccc1C1NCCCN1CCN1CCCNC1c1ccc(cc1)C1NCCCN1CCN1CCCNC21` (configuration not stated), the GI50 in [16] is > 100 µM (inactive); in [1] it was > 100 µM (inactive); in assay [2] it was 41.8 µM (inactive); in [3] it was > 100 µM (inactive); in assay [4] it was > 100 µM (inactive); in [17] it was 92.3 µM (inactive). In addition, the GI50 in assay [5] was > 100 µM (inactive); in assay [6], 44.4 µM (inactive); in [7], > 100 µM (inactive); in [8], 77.3 µM (inactive); in assay [9], 50.7 µM (inactive); in assay [10], > 100 µM (inactive). The GI50 was > 100 µM (inactive) in assay [11], > 100 µM (inactive) in [12], 18.5 µM (inactive) in assay [14] and > 100 µM (inactive) in assay [15].
`COc1cc(C2C(Cl)C(=O)N2NC(=O)c2ccc(NC(C)=O)cc2)ccc1O` (configuration not stated): the GI50 in assay [16], in assay [1], in assay [2], in [3], in assay [17] and in assay [5] was > 100 µM (inactive) throughout. Further, the GI50 in assay [6], in assay [7], in [8], in assay [9], in assay [10] and in assay [11] was > 100 µM (inactive) each time. Further, the GI50 in [12], in assay [14] and in [15] was > 100 µM (inactive) in each case.
